Assay results from a melting point compilation (Tetko et al.; mined from patent text by program, amines drawn as free bases though some values may be those of a salt).

melting point [°C] | Compound
239 to 241 | Clc1ccc2c(c1)C(c1ccccc1)Nc1nccn1-2 (centres undefined)
109 to 110 | Clc1nn2nnnc2c2c1CCCC2
161 to 162 | CC(=O)OCC(OC(C)=O)C(OC(C)=O)C(C=O)OC(C)=O (centres undefined)
215 to 217 | O=C1NC(=O)C2(C(=O)N(Cc3ccc(Cl)c(Cl)c3)c3ccccc32)N1C(=O)OCc1ccccc1 (centres undefined)
133 to 137 | OCCC(=C(c1ccccc1)c1ccc(OCCBr)cc1)c1ccccc1
190 | Cc1cc2c(NC(=S)N3Cc4ccsc4CC3CO)cccc2cn1 (racemic)
51 to 52 | COCC(C)Oc1ccc(CSc2cnn(C(C)(C)C)c(=O)c2Cl)cc1 (centres undefined)
184 to 204 | COc1ccc(-c2ccncc2)cc1-c1cccc(Oc2ccccc2)c1
63.5 to 64 | COC(=O)[C@H](Cc1ccccc1)NC(=S)Cc1cc(C)ccc1C
57 to 65 | COC(=O)c1cc(N)cc(CNC(=O)OC(C)(C)C)c1
58 to 59 | Cc1c(OCCCl)cccc1[N+](=O)[O-]
210 to 215 | CCc1ncnc2cc(O)c(OC)cc12
216 to 217 | CC(C)(C)OC(=O)NC(Cc1ccccc1)C(O)C(Cc1ccccc1)NC(=O)[C@H](CC(N)=O)NC(=O)OCc1ccccc1 (some centres undefined)
196 | COc1ccc(CN2CC(=O)Nc3ccc(OC)cc3C2=O)c(OC)c1
133 to 135 | CNC(=O)C(Cc1ccc(OC)cc1)NC(=O)C(CC(C)C)C(S)CC(=O)OCc1ccccc1 (centres undefined)
124 to 126 | CCOC(=O)N[C@@H]1CCc2ccccc2[C@H]1Cl (relative stereo)
> 300 | O=c1[nH]nc2c3c(cccc13)N=CN2
153 to 154 | COc1cc(C(F)(F)F)nn1-c1ccc(NC(=O)c2cccnc2F)cc1
61.8 to 63 | COc1ccc2cccc(CCOS(=O)(=O)c3ccccc3)c2c1
225 to 228 | Cn1nnnc1-c1cn(C)c2cc(OC(F)F)ccc2c1=O
68 | COC(=O)Cc1ccc(OCCNC(=O)C2Cc3ccccc3N2S(=O)(=O)c2ccc(-c3ccc(F)cc3Cl)cc2)cc1 (centres undefined)
236 to 238 | O=C1Nc2cccc(-c3cccc(NC(=O)c4ccc(O)cc4)c3)c2/C1=C/c1ccc[nH]1
148 | Cc1cccc(-c2n[nH]cc2-c2ccnc(-c3ccc(C(=O)NC4CCOCC4)cc3)c2)n1
180 | COc1cc(NCC(O)CO)c([N+](=O)[O-])cc1O (centres undefined)

melting point [°C] | Compound
124 to 127 | COc1ccc2cc(NC(=O)OC(C)(C)C)ccc2c1
236 to 244 | CNC(=O)c1ccc(C=CC(=O)Nc2cccc(-c3ccc(C)c(CCl)c3C)c2)cc1
125 to 127 | CCCN(CCC)C(=O)Cn1c(-c2ccc(C)s2)nc2cccnc21
212 to 214 | COc1ccc(NC(=O)c2cc(N)ccc2NC(=O)c2ccc(C(C)(C)C)cc2)cc1
184 to 185 | Cc1cccc(C(=O)Nc2c[nH]nc2C(=O)NCC(O)Cc2ccccc2)n1 (centres undefined)
180 to 181 | CCOC(=O)c1cn(NCC=O)c2c(OCc3ccccc3)c(F)c(F)cc2c1=O
158 to 160 | CCN1CCC(=NO)c2ccn(CCCCN3CCC(C(=O)c4ccc(F)cc4)CC3)c2C1=O
95 to 97 | CCCCOCCOc1ccc(-c2ccc(N(C)CCC)c(C=CC(=O)O)c2)cc1
104 | CCOC(=O)c1cc(OC(C)=O)c2cc(OC)ccc2c1
215 to 216 | O=C(/C=C/c1ccc(Br)cc1)Nc1ccccc1C(=O)O
102 to 103 | NS(=O)(=O)c1cc2c(s1)CCCC2O (centres undefined)
165 to 169 | COc1cc(OC)nc(Oc2nccc(-c3ccccc3)c2C(=O)O)n1
153 to 154 | COCOc1c(C)cc(-c2ccc(C(=O)O)cc2)cc1C
238 to 240 | CS(=O)(=O)Nc1cc2occc(=O)c2cc1Oc1ccccc1N
100 to 101 | CCOC(=O)CCC(=O)c1ccc(-c2ccccc2)cc1
156 to 158 | Cc1cc(C)c2cccc(OCc3c(Cl)ccc(S(=O)(=O)N4CCC[C@H]4C(=O)N4CCN(S(=O)(=O)c5ccc(C#N)cc5)CC4)c3Cl)c2n1
144 to 146 | C#Cc1ccnc(-c2ccc(-c3ccccc3C#C)c([N+](=O)[O-])c2)c1
109 to 111 | CCOC(=O)C1(C(=O)OCC)CC(c2ccccc2[N+](=O)[O-])C(O)N1C=O (centres undefined)
118 to 121 | CCCCn1c(=O)n(CCC)c(=O)c2c(N)n(CCCl)nc21
196 | CCc1ccc(NC(=O)Nc2ccc(Oc3ccnc(OC)c3)cc2)cc1
228 to 230 | Cc1csc(NC(=O)C2=C(O)c3ccccc3N(c3ccccc3)C2)n1
230 to 232 | CCCc1nc2c(N)nc3cc(Oc4ccccc4C#N)ccc3c2n1CC(C)C
183 to 184 | Cc1ccc2c(c1)C(C(=O)O)c1ccccc1CO2 (centres undefined)
126 to 129 | CCOC(=O)C1=C(COCCNCC(N)=O)NC(C)=C(C(=O)OC)C1c1ccccc1Cl (centres undefined)

melting point [°C] | Compound
82 to 84 | N#Cc1ccccc1-c1ccc(OCC(=O)C2CC2)cc1
232 to 234 | Nc1ccc(Sc2ccc3c(c2)OCC(=O)N3)cc1
180 to 184 | COc1ccc(-c2ocnc2-c2cc(OC)c(Br)c(OC)c2)cc1N
202 to 205 | CNC(=S)N(C)NC(=O)c1cccc(F)c1
183 to 184 | O=C1C(=O)c2ccccc2C2=C1SCC1(CCN(CC(O)COc3ccc4cc(Br)ccc4c3)CC1)O2 (centres undefined)
252 to 255 | Cc1nnc(NC(=O)C2=C(O)c3ccc4ccccc4c3S(=O)(=O)N2C)s1
188 to 191 | Oc1ccccc1-c1cc(Oc2ccc3cccnc3c2)ncn1
104 to 105 | CCCCCCCCOc1ccc(-c2ccc(C(=O)Oc3ccc(C(C)(Br)C(=O)OC)cc3)cc2)cc1 (centres undefined)
220 to 222 | CSCC(=O)Nc1ccc(C2=NNC(=O)CC2C)cc1 (centres undefined)
120 to 150 | Cc1cccc(C)c1C(=O)n1cc(F)c(N=CN(C)C)nc1=O
149 to 151 | CCCc1nn(C)c2c(=O)[nH]c(-c3cc(C(=O)CN4CCCCC4)ccc3OCC)nc12
142 to 144 | OC(CNCCNc1ncnc2[nH]ncc12)COc1ccccc1 (centres undefined)
125 to 126 | O=C(CCCC(c1cc(F)ccc1F)S(=O)(=O)c1ccc(Cl)cc1)N1CCCC1 (centres undefined)
68 to 69 | CCOC(=O)c1cc(OC)c(OCCOC)cc1[N+](=O)[O-]
83 to 85 | CC=CCC(O)C(=O)c1ccccc1 (centres undefined)
140 | CC(C)CC(NC(c1ccc(-c2ccc(S(C)(=O)=O)cc2)cc1)C(F)(F)F)C(=O)NCC#N (centres undefined)
102 to 103 | CC1=C(C)C(F)N(c2ccc(Cl)c(Cl)c2)C1=O (centres undefined)
73 to 75 | CCOCC(=O)c1cc(C(C)(C)C)c(O)c(C(C)(C)C)c1
135 to 140 | COC(=O)C1=C(COCCn2c(C)nc(C)c2C)NC(C)=C(C(=O)Nc2ccccc2)C1c1ccccc1Cl (centres undefined)
84 to 86 | Clc1cc(Br)c2ccccc2c1Cl
180 to 182 | CC(=O)NCc1ccc(CN2CCN(c3ccc(Cl)cc3)CC2)cc1
177 to 183 | O=C(NCc1ccccn1)c1cc2ccnc(Cl)c2[nH]1
44 to 45 | CCOC(=O)C(F)(F)C(I)c1ccc(OC)cc1 (centres undefined)
192 to 193 | O=C(O)C(O)=Cc1ccc([N+](=O)[O-])s1

melting point [°C] | Compound
123 | Cn1nc(-c2cc(Oc3ccccc3)c(C#N)cc2F)c(Cl)c1C(F)(F)F
179 to 181 | COc1ccnc(CS(=O)c2nc3cc4c(cc3[nH]2)OC(F)(F)C(F)(Cl)O4)c1 (centres undefined)
175 to 177 | O=C1NCc2cccnc2N1c1cccc(I)c1
140 to 141 | COC(=O)c1ccccc1S(=O)(=O)NC(=O)Nc1nc(C)cc(CO)n1
65 to 67 | CC(C)n1nc2cccc([N+](=O)[O-])c2n1
117 to 118 | O=Cc1c(Cl)nc(-c2ccccc2)n1Cc1ccccc1
80 to 82 | COc1ccc(C2CCc3cc(C)ccc3C2=O)cc1 (centres undefined)
98 to 100 | COC1(c2cccc(OCc3ccc(-n4cnc(-c5ccccc5)c4)cc3)c2)CCOCC1
168 to 170 | COc1ccccc1N1CCN(CCn2cnc3sc4c(c3c2=O)CCNC4)CC1
137 to 138 | CC(Cl)C(=O)c1ccc(OCCCN2C(=O)c3ccccc3C2=O)cc1 (centres undefined)
218 to 220 | CC(=O)NC1Cc2ccc(NC(=O)c3ccccc3-c3ccc(F)cc3)cc2C1 (centres undefined)
188 | CCN(c1cccc2cc(-c3ncc(COc4ccc(C(=O)O)cc4)s3)[nH]c12)S(=O)(=O)c1cccs1
155 to 156 | C[C@H](CSC(=O)C(C)(C)C)C(=O)N(CC(=O)O)C1CCCC1
125 to 130 | CC(=O)OC1CC(C)(C)N(OC(=NC2CCCCC2)N(C(C)=O)C2CCCCC2)C(C)(C)C1
157 | Cc1cn2c(=O)c(CCN3CCC(C(=O)c4ccc(F)cc4)CC3)cnc2n1Cc1ccccc1
209 to 216 | CN=C(O)c1c(Cl)c(Cl)c(Sc2ccc(C)cc2)c(Cl)c1C(=O)O
116 to 118 | CN(C)Cc1ccc(CSCCNc2ncc(-c3ccccc3)c(=O)[nH]2)o1
156 to 157 | Cc1ccc(C(c2ccc(C)cc2)C2CN(Cc3ccc(O)cc3)CCC2=O)cc1 (centres undefined)
90 to 92 | CCOC(=O)c1c([N+](=O)[O-])c(-c2ccc(Cl)cc2)n(OC)c1C(F)(F)F
182 to 184 | CC(=O)Oc1ccc(C(=O)O)c2ccccc12
51 to 54 | CCCCCCCCN(SN(C(=O)NC(=O)c1ccccc1[N+](=O)[O-])c1ccc(Oc2ncc(Br)cn2)c(Cl)c1)C(=O)OC
45 | CC(C)c1ccc(N2COCN(C)C2=O)cc1F

Compound | melting point [°C]
O=Cc1cc2n(n1)-c1ccc(Cl)cc1C(c1ccccc1)=NC2 | 170 to 172
CC(=O)Oc1ccc2c3c1OC1C(OS(=O)(=O)C(F)(F)F)CCC4(O)C(C2)N(C)CCC314 (centres undefined) | 125 to 126
C=C(c1c(C#N)nn(-c2c(Cl)cc(C(F)(F)F)cc2Cl)c1N)C(F)(F)F | 147 to 148
ClC1(Cl)OC(Cl)(Cl)c2ccccc21 | 85 to 86
OCc1ccc(C2=NOC(c3cc(Cl)cc(Cl)c3)(C(F)(F)F)C2)cc1 (centres undefined) | 108 to 110
